Source: patent US20230263826A1, “Compositions and Methods for Treatment and Prevention of Type 1 Diabetes” (The UAB Research Foundation, priority 2021, published 2023)

Test system: female NOD mice
Assay: i.p. glucose tolerance test (GTT) in FKGK18-treated NOD mice
Format: in vivo, mouse
Details: for glucose tolerance vs PBS-T: glucose 2 g/kg i.p.
Procedure: FIGS. 1A-1M show the effects of temporal FKGK18 regimen on T1D incidence and islet phenotype, wherein female NOD mice were administered FKGK18 (20 mg/kg, 3 × weekly) or vehicle (PBS-T) starting at 4 or 8 weeks of age. FIGS. 1A and 1B show diabetes incidence; blood glucose was monitored weekly in the 4-week (FIG. 1A; n = 17 and 15 for PBS-T and FKGK18 groups, respectively) and 8-week (FIG. 1B; n = 15 each in the PBS-T and FKGK18 groups) regimen groups for up to 30 weeks. Two consecutive readings of ≥ 275 mg/dL were recorded as onset of T1D (^†P < 0.05). FIGS. 1C-1F show glucose tolerance test (GTT) results, wherein overnight fasted mice were administered glucose (2 g/kg, i.p.), glucose levels in blood from tail vein were monitored over a 2-hour period, and AUC were generated. FIGS. 1C and 1D show four-week group at 14 weeks of age; n = 5 each in the PBS-T and FKGK18 groups. FIGS. 1E and 1F show eight-week group at 25 weeks of age; n = 7 and 5 for PBS-T and FKGK18 groups, respectively. FIGS. 1G-1I show phenotype parameters in the 8-week regimen group. […] FIGS. 1H and 1I show β Cell mass (PBS-T, n = 15; FKGK18, n = 14) (FIG. 1H) and circulating insulin (n = 15 in each group) (FIG. 1I) were determined at sacrifice (PBS-T, 14-30 weeks of age; FKGK18, 16-36 weeks of age). FIGS. 1J and 1K show islet infiltration; paraffin sections (10 µm) of pancreas were prepared and stained with H&E. Percent infiltration for each islet was calculated as the value of noninfiltrated area subtracted from total islet area (% infiltrate = 100 × [(total area - noninfiltrated area)/(total area)]) using ImageJ software. […]
FIGS. 2A-2E show the effects of FKGK18-withdrawal regimen on T1D incidence and glucose tolerance, wherein female NOD mice were administered FKGK18 (20 mg/kg, 3 × weekly, n = 18) or vehicle (PBS-T, n = 17) starting at 10 days of age and until 14 weeks of age. […] FIGS. 2B and 2D show glucose tolerance test (GTT) results, assessed at 14 (FIG. 2B) and 25 (FIG. 2D) weeks of age (data are presented as mean ± SEM), as described in FIG. 1. […]

SMILES: O=C(CCCCc1ccc2ccccc2c1)C(F)(F)F [FKGK18]
- glucose tolerance, PBS-T vs FKGK18-withdrawn group (FKGK18 from 10 days until 14 weeks of age, GTT at 14 and 25 weeks of age): indistinguishable
- glucose tolerance vs PBS-T (FKGK18 started at 4 weeks of age, GTT at 14 weeks of age): No differences
- glucose tolerance vs PBS-T (FKGK18 started at 8 weeks of age, GTT at 25 weeks of age): No differences
